Test results reported in US20220008547A1, “Carrier Peptide Fragment and use Thereof” (TOAGOSEI CO., LTD, priority 2020, published 2022).
Non-standard residues stand in square brackets, D forms with d. No end group written: not given here. FAM = fluorescent dye label; Ahx = NCCCCCC(=O)O; βAla = NCCC(=O)O

Test system: HeLa cells
Assay: Evaluation of cell-penetrating function by flow cytometry (mean fluorescent intensity)
Assay type: cell-based, human
Settings: for MFI (mean fluorescent intensity of measurement target cell populations): 10 μM final concentration, 20-hour incubation at 37° C., 0.5% DMSO, flow cytometer FL2, 10,000 cells
Protocol: HeLa cells (established cell lines derived from human cervical cancer cells) were used as eukaryotic cells, and cell-penetrating functions of three samples (constructs for introducing a foreign substance) obtained in Example 1 were examined
In this example, Examples 1 to 3 were set according to the kind of peptide used as shown below. In addition, as Examples 4 and 5, peptide-free groups were set. The following test was performed in a total of 5 categories. Here, the concentration described below was a final concentration during the following 20-hour incubation.
Here, in all of the examples, the concentration of DMSO was adjusted to 0.5% during the following 20-hour incubation. In addition, the number of test wells (n) in each of the above examples was set to 3.
HeLa cells were cultured using a mixed solution containing a 90% Eagle's MEM medium (containing 0.1% non-essential amino acid, 2 mM of L-glutamine, 1 mM of sodium pyruvate, and 1.5 g/L of sodium bicarbonate) and 10% serum (FBS: fetal bovine serum) as a culture solution.
The HeLa cells were subjected to a trypsin treatment with a 0.25% trypsin/EDTA solution at 37° C. for 3 minutes. After the above treatment, trypsin was inactivated using the culture solution. Centrifugation was performed and the centrifugal supernatant was removed. The cell pellet obtained by centrifugation was suspended in a fresh culture solution. A cell suspension (sample for introducing a foreign substance) having a cell concentration of about 1×10^5 cells/well was prepared from the culture solution, and 2 ml thereof was seeded in each well of a commercially available 6-well plate (commercially available from Iwaki). Then, the cells were cultured at 37° C. for 4 hours under 5% CO2 conditions, and adhesion of the seeded cells was confirmed.
Then, 1 ml of the culture supernatant was removed from the well after the culture for 4 hours, and a culture solution containing Sample 1 at a concentration of 20 μM was added. That is, the final sample concentration in the well was 10 μM.
The plate was then incubated at 37° C. for 20 hours under 5% CO2 conditions.
After such incubation for 20 hours, the cells were washed twice with PBS at 1 ml/well. Then, the cells in the wells were treated with a 0.25% trypsin/EDTA solution at 200 μL/well at 37° C. for 3 minutes. Then, a culture solution at 400 μL/well was additionally added and the cells were collected in the tube. Then, the wells were additionally washed with PBS at 600 μL/well, and the cells remaining in the wells were collected in the above tube. The tube was centrifuged at 4° C. for 5 minutes under 210×g conditions. The centrifugal supernatant was removed, and the cell pellet was suspended (washed) in 1 ml PBS, and centrifuged under the same conditions as above. This operation was repeated twice.
Then, the collected cells were analyzed using a flow cytometer. […]
Using the above flow cytometer, gating was performed based on forward scatter (FSC) and side scatter (SSC), and a gate was set for a measurement target cell population. Then, the fluorescent intensity of the cell population within such a gate was measured. The fluorescent intensity of 10,000 measurement target cells was measured for each measurement sample. […] The measurement results were analyzed using commercially available analysis software “FlowJo (registered trademark)” (commercially available from TreeStar), and a mean fluorescent intensity (MFI) of measurement target cell populations was obtained. […]

Row | Substance | MFI (mean fluorescent intensity of measurement target cell populations) | cell permeability (comparison of MFI among samples) (10 μM, 20-hour incubation)
1 | FAM-KKRTLRKNDRKKR-CONH2 ({FAM}-KKRTLRKNDRKKR-NH2) [Example 2] | 24 | –
2 | FAM-TLKERCLQVVRSLVKKKRTLRKNDRKKR-CONH2 ({FAM}-TLKERCLQVVRSLVKKKRTLRKNDRKKR-NH2) [Example 1] | 8.2 × 10^2 | the best
3 | RXRRBRRXRYQFLIRXRBRXRB-FAM (R[Ahx]RR[βAla]RR[Ahx]RYQFLIR[Ahx]R[βAla]R[Ahx]R[βAla]-{FAM}) [Example 3, X aminohexanoic acid, B β-alanine] | 4.0 × 10^2 | –
4 | 5(6)-Carboxyfluorescein [Example 4] | 9.7 | –
